From patent US10729759B2, “Fluorocarbon-linked peptide formulation” (priority 2010, dated 2020)
Entries after “also recorded” stand apart in the source; their conditions may differ. Like-named read-outs stand apart in the source and are kept apart here.

Key:
[1] = format: physicochemical; settings: for Percentage acetic acid (% v/v): minimum concentration for acceptable dispersibility and solubility: FCP 2 μmol/ml after acetic acid dispersion; for Visual appearance after dispersion: at the listed acetic acid concentration, FCP 2 μmol/ml
Protocol: In order to limit the concentration of acetic acid downstream in the formulation process and in the final product, the lowest concentration of acetic acid in water to achieve efficient dispersion and maintain visible solubility was determined for each fluorocarbon-linked peptide. When using mannitol as a cryprotectant, it is important to minimize the acetic acid concentration at the lyophilisation stage in order to achieve a stable and amorphous freeze-dried product. The minimum acetic acid concentration to achieve acceptable dispersibility and solubility of the individual fluorocarbon-linked peptides was determined. The final concentration of fluorocarbon-linked peptide after initial acetic acid dispersion was 2 μmol/ml and after dilution with mannitol, 0.250 μmol/ml.

[2] = format: physicochemical; settings: 1.33% mannitol, 0.22 μm PVDF filter; for YIELD % of each FCP following sterile filtration, MIX 1: MIX 1 dispersed in water; for YIELD % of each FCP following sterile filtration, MIX 2: MIX 2 dispersed in water
[3] = format: physicochemical; settings: for Further dilution in Mannitol:Water Solubility: FCP 0.167 mM, 1.33% (w/v) mannitol, cloudiness / particulates; for Dispersion in Water Solubility: FCP 1.333 mM in water, vortexed and sonicated, cloudiness (Clear/Cloudy−/Cloudy/Cloudy+) / particulates
Protocol: The solubility of each FCP in water was assessed. Each FCP was dispersed in 300 μl of water to a final concentration of 1.333 mM and vortexed and sonicated. The typical dispersion conditions were four sequences of three minutes bath sonication interspersed by 30 seconds vortexing. After inspection, the resulting solution was diluted with a mannitol solution (a candidate lyophilisation medium, final concentration of peptide 0.167 mM, 1.33% (w/v) mannitol). Solubility was assessed by visual observation of the cloudiness of the resulting dispersion (scaled: Clear/Cloudy−/Cloudy/Cloudy+) and presence of particulates. […]

[4] = 10 mg net/ml in 10% or 80% acetic acid

| Structure (SMILES) | Percentage acetic acid (% v/v): minimum concentration for acceptable dispersibility and solubility [1] | Visual appearance after dispersion [1] | YIELD % of each FCP following sterile filtration, MIX 1 [2] | Ease of solubility, Cycle 1 Vortexing (10 mg net/ml in 10% (FCP1, 2, 4, 5) or 80% (FCP9, 8) acetic acid) | Ease of solubility, Cycle 1 Sonication [4] | Ease of solubility, Cycle 2 Sonication [4] | Ease of solubility, Cycle 2 Vortexing [4] | Ease of solubility, Cycle 3 Sonication [4] | Ease of solubility, Cycle 3 Vortexing [4] | Visual appearance after dispersion (10 mg net/ml in AcOH 10% or 80%) | Further dilution in Mannitol:Water Solubility [3] | Dispersion in Water Solubility [3] | Physical stability of formulation at less than 80% (v/v) acetic acid ([1]; gel or soluble particulates formed over time) | YIELD % of each FCP following sterile filtration, MIX 2 [2] |
| --- | --- | --- | --- | --- | --- | --- | --- | --- | --- | --- | --- | --- | --- | --- |
| CC[C@H](C)[C@H](NC(=O)[C@H](C)NC(=O)[C@H](CCSC)NC(=O)[C@H](Cc1c[nH]cn1)NC(=O)[C@@H](N)CCCCNC(=O)CCC(F)(F)C(F)(F)C(F)(F)C(F)(F)C(F)(F)C(F)(F)C(F)(F)C(F)(F)F)C(=O)N[C@H](C(=O)N[C@@H](CCCCN)C(=O)N[C@@H](CCCCN)C(=O)N[C@@H](Cc1ccc(O)cc1)C(=O)N[C@H](C(=O)N[C@@H](CO)C(=O)NCC(=O)N[C@@H](CCCNC(=N)N)C(=O)N[C@@H](CCC(N)=O)C(=O)N[C@@H](CCC(=O)O)C(=O)N[C@@H](CCCCN)C(=O)N[C@@H](CC(N)=O)C(=O)N1CCC[C@H]1C(=O)N[C@@H](CO)C(=O)N[C@@H](CC(C)C)C(=O)N[C@@H](CCCNC(=N)N)C(=O)N[C@@H](CCSC)C(=O)N[C@@H](CCCCN)C(=O)N[C@@H](Cc1c[nH]c2ccccc12)C(=O)N[C@@H](CCSC)C(=O)N[C@@H](CCSC)C(=O)N[C@@H](C)C(=O)N[C@@H](CCSC)C(=O)N[C@@H](CCCCN)C(=O)N[C@@H](Cc1ccc(O)cc1)C(=O)N1CCC[C@H]1C(=O)N[C@H](C(=O)N[C@H](C(=O)N[C@@H](C)C(=O)N[C@@H](CC(=O)O)C(=O)N[C@@H](CCCCN)C(N)=O)[C@@H](C)O)[C@@H](C)CC)[C@@H](C)O)[C@@H](C)CC [FCP1] | 10 % v/v | Clear | 89.9% | Clear | Clear | Clear | Clear | Clear | Clear | Clear | partially soluble; also recorded: Clear/Particulates | Cloudy/Particulates |  |  |
| CC[C@H](C)[C@H](NC(=O)[C@@H]1CCCN1C(=O)[C@H](C)NC(=O)[C@@H](N)CCCCNC(=O)CCC(F)(F)C(F)(F)C(F)(F)C(F)(F)C(F)(F)C(F)(F)C(F)(F)C(F)(F)F)C(=O)N[C@@H](CCSC)C(=O)N[C@@H](Cc1ccccc1)C(=O)N[C@@H](CO)C(=O)N[C@@H](CC(N)=O)C(=O)N[C@@H](CCCCN)C(=O)N[C@@H](CCSC)C(=O)N[C@@H](C)C(=O)N[C@@H](CCCNC(=N)N)C(=O)N[C@@H](CC(C)C)C(=O)NCC(=O)N[C@@H](CCCCN)C(=O)NCC(=O)N[C@@H](Cc1ccc(O)cc1)C(=O)N[C@@H](CCSC)C(=O)N[C@@H](Cc1ccccc1)C(=O)N[C@@H](CCC(=O)O)C(=O)N[C@@H](CO)C(=O)N[C@@H](CCCCN)C(=O)N[C@@H](CO)C(=O)N[C@@H](CCSC)C(=O)N[C@@H](CCCCN)C(=O)N[C@@H](CC(C)C)C(=O)N[C@@H](CCCNC(=N)N)C(=O)N[C@H](C(=O)N[C@@H](CCC(N)=O)C(=O)N[C@H](C(=O)N1CCC[C@H]1C(=O)N[C@@H](C)C(=O)N[C@@H](CCC(=O)O)C(=O)N[C@@H](CCSC)C(=O)N[C@@H](CC(C)C)C(=O)N[C@@H](C)C(N)=O)[C@@H](C)CC)[C@@H](C)O [FCP3] |  |  | 28.6% |  |  |  |  |  |  |  | partially soluble; also recorded: Clear/Particulates | Cloudy−/Particulates |  |  |
| CC[C@H](C)[C@H](NC(=O)[C@H](CO)NC(=O)[C@@H](NC(=O)CNC(=O)[C@H](CC(C)C)NC(=O)[C@@H](NC(=O)[C@@H](NC(=O)[C@H](CO)NC(=O)[C@H](CC(C)C)NC(=O)[C@H](CCSC)NC(=O)[C@H](CC(N)=O)NC(=O)[C@H](Cc1ccccc1)NC(=O)[C@H](CCSC)NC(=O)CNC(=O)[C@H](CCSC)NC(=O)[C@H](CCSC)NC(=O)[C@H](CCSC)NC(=O)CNC(=O)[C@@H]1CCCN1C(=O)[C@H](CO)NC(=O)[C@@H](N)CCCCNC(=O)CCC(F)(F)C(F)(F)C(F)(F)C(F)(F)C(F)(F)C(F)(F)C(F)(F)C(F)(F)F)[C@@H](C)O)C(C)C)C(C)C)C(=O)N[C@@H](CC(C)C)C(=O)N[C@@H](CC(N)=O)C(=O)N[C@@H](CC(C)C)C(=O)NCC(=O)N[C@@H](CCC(N)=O)C(=O)N[C@@H](CCCCN)C(=O)N[C@@H](CCCCN)C(=O)N[C@@H](Cc1ccc(O)cc1)C(=O)N[C@H](C(=O)N[C@@H](CCCCN)C(=O)N[C@H](C(=O)N[C@H](C(=O)N[C@@H](Cc1ccc(O)cc1)C(N)=O)[C@@H](C)O)[C@@H](C)O)[C@@H](C)O [FCP6] | 80 % v/v | Clear | 74.1% |  |  |  |  |  |  |  | partially soluble; also recorded: Clear/Particulates | Cloudy−/Particulates | physically unstable over time | 8.8% |
| CC[C@H](C)[C@H](NC(=O)[C@H](CO)NC(=O)[C@H](CC(C)C)NC(=O)[C@@H](NC(=O)[C@H](CC(N)=O)NC(=O)[C@H](CCCNC(=N)N)NC(=O)[C@H](Cc1ccccc1)NC(=O)[C@H](Cc1c[nH]c2ccccc12)NC(=O)[C@H](CCC(=O)O)NC(=O)[C@@H]1CCCN1C(=O)[C@H](CCC(N)=O)NC(=O)[C@H](CC(N)=O)NC(=O)[C@H](CCCCN)NC(=O)[C@@H](NC(=O)[C@@H](NC(=O)[C@H](Cc1ccc(O)cc1)NC(=O)[C@@H](N)CCCCNC(=O)CCC(F)(F)C(F)(F)C(F)(F)C(F)(F)C(F)(F)C(F)(F)C(F)(F)C(F)(F)F)[C@@H](C)CC)[C@@H](C)O)[C@@H](C)CC)C(=O)N[C@@H](C)C(=O)N1CCC[C@H]1C(=O)N[C@H](C(=O)N[C@@H](CCSC)C(=O)N[C@@H](Cc1ccccc1)C(=O)N[C@@H](CO)C(=O)N[C@@H](CC(N)=O)C(=O)N[C@@H](CCCCN)C(=O)N[C@@H](CCSC)C(=O)N[C@@H](C)C(=O)N[C@@H](CCCNC(=N)N)C(=O)N[C@@H](CC(C)C)C(=O)NCC(=O)N[C@@H](CCCCN)C(=O)NCC(=O)N[C@@H](Cc1ccc(O)cc1)C(=O)N[C@@H](CCSC)C(=O)N[C@@H](Cc1ccccc1)C(=O)N[C@@H](CCC(=O)O)C(N)=O)[C@@H](C)CC [FCP10] |  |  |  |  |  |  |  |  |  |  | partially soluble; also recorded: Clear/Particulates | Cloudy−/Particulates |  | 90.7% |
| CC[C@H](C)[C@H](NC(=O)[C@H](CCCNC(=N)N)NC(=O)[C@H](CCSC)NC(=O)CNC(=O)[C@H](CO)NC(=O)CNC(=O)[C@H](CCCNC(=N)N)NC(=O)[C@@H](NC(=O)[C@H](CC(N)=O)NC(=O)[C@@H](NC(=O)[C@@H](NC(=O)[C@H](CC(C)C)NC(=O)[C@H](CO)NC(=O)[C@H](CO)NC(=O)[C@H](Cc1ccccc1)NC(=O)[C@H](CCC(N)=O)NC(=O)[C@H](CCSC)NC(=O)[C@H](CCCNC(=N)N)NC(=O)[C@H](CO)NC(=O)[C@H](CCC(N)=O)NC(=O)[C@@H](N)CCCCNC(=O)CCC(F)(F)C(F)(F)C(F)(F)C(F)(F)C(F)(F)C(F)(F)C(F)(F)C(F)(F)F)[C@@H](C)O)C(C)C)C(C)C)C(=O)N[C@@H](CC(C)C)C(=O)N[C@H](C(=O)N[C@@H](CCCNC(=N)N)C(=O)NCC(=O)N[C@@H](CC(N)=O)C(=O)N[C@@H](CO)C(=O)N1CCC[C@H]1C(=O)N[C@H](C(=O)N[C@@H](Cc1ccccc1)C(=O)N[C@@H](CC(N)=O)C(=O)N[C@@H](Cc1ccc(O)cc1)C(=O)N[C@@H](CC(N)=O)C(=O)N[C@@H](CCCCN)C(N)=O)C(C)C)C(C)C [FCP11] |  |  |  |  |  |  |  |  |  |  | fully soluble; also recorded: Clear/No Particulates | fully soluble; also recorded: Clear/No Particulates |  | 49.4% |
